Experimental data reported in ChEMBL document CHEMBL1201862, “PubChem BioAssay data set” (2004).
Structures can show the parent of a compound that is named as a salt.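 Following 48 hours of exposure in 96-well plates, responses at five concentrations were used to interpolate endpoints linearly. GI50 = concentration required for 50% inhibition of growth.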 Activity calls are given as the source filed them. Cut-off read from the data, not from the text of the source: active = GI50 up to about 1.1 µM and inactive = higher.

Key:
Experiment in all cases: NCI tumour cell line growth inhibition, 48 h
[1] = tested on: XF498
[2] = tested on: M19-MEL
[3] = tested on: DMS-273
[4] = tested on: KM-20L2
[5] = tested on: DLD-1
[6] = tested on: DMS-114
[7] = tested on: LXFL 529
[8] = tested on: HOP-18
[9] = tested on: RXF 631

Row | SMILES | GI50 [1] | GI50 [2] | GI50 [3] | GI50 [4] | GI50 [5] | GI50 [6] | GI50 [7] | GI50 [8] | GI50 [9]
1 | COC(=O)Cc1cc(=O)n2c([nH]c3ccccc32)c1C#N | > 100 µM (inactive) | > 100 µM (inactive) | > 100 µM (inactive) | > 100 µM (inactive) | 30.8 µM (inactive) | > 100 µM (inactive) | – | – | –
2 | CC1=NN(C(=O)c2ccc(Cl)cc2)C(=O)/C1=C/c1cccc([N+](=O)[O-])c1 | > 100 µM (inactive) | > 100 µM (inactive) | – | > 100 µM (inactive) | > 100 µM (inactive) | > 100 µM (inactive) | > 100 µM (inactive) | – | –
3 | C=CCNC(=O)C(C)C1CCC2(C)C=CC(=O)C(C)=C2C1O (centres undefined) | > 100 µM (inactive) | > 100 µM (inactive) | > 100 µM (inactive) | > 100 µM (inactive) | > 100 µM (inactive) | > 100 µM (inactive) | – | > 100 µM (inactive) | –
4 | O=C1c2c(O)cccc2-c2nn(CCNCCO)c3ccc(NCCNCCO)c1c23 [LOSOXANTRONE HYDROCHLORIDE] | 0.0135 µM (active) | 0.16 µM (active) | 0.0288 µM (active) | 1.66 µM (inactive) | 1.24 µM (inactive) | < 0.0104 µM (active) | 0.107 µM (active) | 0.248 µM (active) | 0.318 µM (active)
5 | Cc1nc(-n2nc(-c3ccccc3)cc2-c2ccccc2)sc1C(=O)/C=C/c1ccc(Cl)c(Cl)c1 | 17.1 µM (inactive) | 51.6 µM (inactive) | 32.2 µM (inactive) | 12.2 µM (inactive) | 13.4 µM (inactive) | 33.3 µM (inactive) | 15.3 µM (inactive) | – | 8.26 µM (inactive)
6 | COc1ccc(S(=O)(=O)c2ccccc2[N+](=O)[O-])cc1 | – | 77.8 µM (inactive) | > 100 µM (inactive) | > 100 µM (inactive) | > 100 µM (inactive) | 57.7 µM (inactive) | 92 µM (inactive) | > 100 µM (inactive) | –
7 | C/C=C1/C(=Cc2[nH]c(C=c3[nH]/c(=C/C4=NC(=O)C(CC)=C4C)c(C)c3CCC(=O)O)c(CCC(=O)O)c2C)NC(=O)C1C (centres undefined) | 8.63 µM (inactive) | 10.9 µM (inactive) | 5.45 µM (inactive) | 2.03 µM (inactive) | 2.58 µM (inactive) | 19.1 µM (inactive) | 2.06 µM (inactive) | 30.2 µM (inactive) | 6.65 µM (inactive)
8 | COc1ccc(CCNCc2cccc(OC)c2OC)cc1OC | > 100 µM (inactive) | > 100 µM (inactive) | > 100 µM (inactive) | > 100 µM (inactive) | > 100 µM (inactive) | > 100 µM (inactive) | > 100 µM (inactive) | – | > 100 µM (inactive)
9 | O=c1ccc2ccccc2o1 [COUMARIN] | > 100 µM (inactive) | > 100 µM (inactive) | – | > 100 µM (inactive) | > 100 µM (inactive) | > 100 µM (inactive) | > 100 µM (inactive) | > 100 µM (inactive) | –
10 | COc1nc(N)c(NC(C)=O)c(=O)n1C | > 100 µM (inactive) | – | > 100 µM (inactive) | > 100 µM (inactive) | > 100 µM (inactive) | > 100 µM (inactive) | > 100 µM (inactive) | > 100 µM (inactive) | > 100 µM (inactive)
11 | Cc1cc(Cl)ccc1NC(=O)CCCC(=O)C(C(=O)c1ccccc1)c1ccccc1 (centres undefined) | – | > 100 µM (inactive) | > 100 µM (inactive) | > 100 µM (inactive) | > 100 µM (inactive) | > 100 µM (inactive) | > 100 µM (inactive) | – | > 100 µM (inactive)
12 | Cc1ccc2c(c1)C1C(CO2)C(c2ccccc2)=NN1c1ccccc1 (centres undefined) | – | > 100 µM (inactive) | > 100 µM (inactive) | > 100 µM (inactive) | > 100 µM (inactive) | > 100 µM (inactive) | > 100 µM (inactive) | > 100 µM (inactive) | –
13 | CCOC(=O)/C(C#N)=C(N)/C(=N\Nc1cccc(C(F)(F)F)c1)C(=O)OCC | – | > 100 µM (inactive) | > 100 µM (inactive) | > 100 µM (inactive) | > 100 µM (inactive) | > 100 µM (inactive) | > 100 µM (inactive) | > 100 µM (inactive) | –
14 | CC1CCCP(=O)(c2ccccc2)CC1 (centres undefined) | – | > 100 µM (inactive) | > 100 µM (inactive) | > 100 µM (inactive) | > 100 µM (inactive) | > 100 µM (inactive) | > 100 µM (inactive) | 0.202 µM (active) | > 100 µM (inactive)
15 | c1c(N2CCOCC2)s[s+]c1N1CCOCC1 | – | – | > 100 µM (inactive) | > 100 µM (inactive) | > 100 µM (inactive) | > 100 µM (inactive) | > 100 µM (inactive) | > 100 µM (inactive) | –
16 | COc1ccc(C(=O)C(C(=O)C(=O)NCCCNC(=O)C(=O)C(C(=O)c2ccc(OC)cc2)c2ccc(OC)cc2)c2ccc(OC)cc2)cc1 (centres undefined) | > 100 µM (inactive) | – | > 100 µM (inactive) | > 100 µM (inactive) | > 100 µM (inactive) | > 100 µM (inactive) | > 100 µM (inactive) | > 100 µM (inactive) | –
17 | Cc1ccc(Oc2ccc(C)cc2[N+](=O)[O-])cc1 | 0.275 µM (active) | 79.4 µM (inactive) | > 100 µM (inactive) | > 100 µM (inactive) | 77.4 µM (inactive) | 28.4 µM (inactive) | 43.6 µM (inactive) | > 100 µM (inactive) | > 100 µM (inactive)
18 | COc1ccc(NC(=O)CSc2nnc(Cc3ccccc3)o2)cc1 | – | 82.6 µM (inactive) | > 100 µM (inactive) | > 100 µM (inactive) | > 100 µM (inactive) | 17.9 µM (inactive) | > 100 µM (inactive) | > 100 µM (inactive) | –
19 | Cc1ccc(NC(=O)/C(CC(=O)c2c[n+]([O-])c3ccccc3[n+]2[O-])=N\NC(=O)C[n+]2ccccc2)cc1 | > 100 µM (inactive) | > 100 µM (inactive) | > 100 µM (inactive) | > 100 µM (inactive) | > 100 µM (inactive) | > 100 µM (inactive) | > 100 µM (inactive) | > 100 µM (inactive) | > 100 µM (inactive)
20 | CCOC(=O)Nc1ccc(S(=O)(=O)OC)cc1.CCOC(=O)Nc1ccc(S(=O)(=O)OC)cc1.NC(=O)NCCO | – | 29.9 µM (inactive) | 29.2 µM (inactive) | > 50 µM (inactive) | 7.08 µM (inactive) | 22.1 µM (inactive) | 29.4 µM (inactive) | 49.4 µM (inactive) | 46.5 µM (inactive)
21 | CC1(C)OC(C(N)=O)=C(C(N)=O)O1 | > 100 µM (inactive) | > 100 µM (inactive) | > 100 µM (inactive) | > 100 µM (inactive) | > 100 µM (inactive) | > 100 µM (inactive) | > 100 µM (inactive) | > 100 µM (inactive) | –
22 | CS(=O)(=O)OCCN(CCOS(C)(=O)=O)c1ccc(/C=N/c2ccc(-c3csc(COc4ccccc4)n3)cc2)cc1 | 2.12 µM (inactive) | 13.4 µM (inactive) | 0.46 µM (active) | 3.14 µM (inactive) | 13.1 µM (inactive) | 5.85 µM (inactive) | 12.1 µM (inactive) | 5.25 µM (inactive) | –
23 | O=P(c1ccccc1)(c1ccccc1)C1CC=C(c2ccccc2)C2(CCCC2)C1 (centres undefined) | 65.5 µM (inactive) | 43.7 µM (inactive) | > 100 µM (inactive) | 33.7 µM (inactive) | 48.9 µM (inactive) | 34.4 µM (inactive) | > 100 µM (inactive) | 25.6 µM (inactive) | 40.1 µM (inactive)
24 | COC(=O)C1CC2(c3ccccc3)C(=O)c3ccccc3N2O1 (centres undefined) | – | 64.4 µM (inactive) | 31.6 µM (inactive) | > 100 µM (inactive) | 78.7 µM (inactive) | 46.6 µM (inactive) | 50 µM (inactive) | > 100 µM (inactive) | –
25 | COc1ccc(-c2cc(N3CCN(c4ccc(Cl)cc4)CC3)c(C#N)c(=O)o2)cc1 | 3.09 µM (inactive) | – | 16.3 µM (inactive) | > 100 µM (inactive) | 25.8 µM (inactive) | 7.41 µM (inactive) | 16.7 µM (inactive) | 4.24 µM (inactive) | –
26 | Cc1ccc(/C=C/C(=O)c2ccc([N+](=O)[O-])cc2)cc1 | > 100 µM (inactive) | > 100 µM (inactive) | > 100 µM (inactive) | > 100 µM (inactive) | 99.8 µM (inactive) | – | 74.3 µM (inactive) | > 100 µM (inactive) | > 100 µM (inactive)
27 | CN1C(=N\S(=O)(=O)c2ccc(Cl)cc2)/C(=N/N=P(c2ccccc2)(c2ccccc2)c2ccccc2)c2ccccc21 | > 100 µM (inactive) | > 100 µM (inactive) | > 100 µM (inactive) | > 100 µM (inactive) | > 100 µM (inactive) | – | > 100 µM (inactive) | – | > 100 µM (inactive)
